In brackets after ≈: the same amount, converted by molar mass. Like-named read-outs stand apart in the source and are kept apart here.
Columns and labels:
[1] = Stability of Form I and Form II under various storage conditions; type: physicochemical; settings: during the entire study, all storage conditions
From the text: In each case, the test material was first placed in Primary Packaging Material (LLDPE bag within a HMHDPE/LDPE/LDPE blend bag, and then heat sealed). The Primary Packaging Material was placed in Secondary Packaging Material (HDPE drum). All other impurities were less than 1% at each time point.

physchem [2] = settings: pH 6.03, saline or isotonic, thermodynamic from solid
[3] = Balb/c, mouse, in vivo, po, 20 mg/kg
Protocol: (§1) The doses were prepared as 2.0 mg/mL or 10.0 mg/mL in a vehicle of 0.5% (w/v) carboxymethyl cellulose in water and a dose volume of 10 mL/kg b.w. Blood samples were collected at various time points during the next 6 h post dose.

in vivo [4] = settings: female, Balb/c, mouse, po; for AUC(0-t): AUC 0-24; for half-life: t½
[5] = female, Balb/c, mouse, in vivo, po
physchem [6] = settings: 26 °C, thermodynamic from solid
in vivo [7] = settings: Balb/c, mouse, po
Protocol: as §1

Dynamic vapor sorption = type: physicochemical
Protocol: The new physical form, Form I of CEM-101 is a crystalline form which may be described by its X-ray powder diffraction pattern. Peaks at approximate positions of about °2θ=8.8, 10.5, 13.2 and 18.6 are representative of this crystalline form. A more detailed analysis of the peaks is described in Tables 1-2 below. […] Water determination by Karl Fisher titration in typical lots is 0.6 to 1.1%. […] Form I of CEM-101 melts at about 200° C. by DSC analysis.
The new physical form, Form II of CEM-101 is a crystalline form which may be described by its X-ray powder diffraction pattern. Peaks at approximate positions of about °2θ=5.6, 7.9, 9.3, 11.7, 12.9 and 16.7 are representative of this crystalline form. A more detailed analysis of the peaks is described in Tables 3-4 below. Based on a single crystal X-ray determination and dynamic vapor sorption analysis, Form II appears to be a non-hygroscopic anhydrous crystalline form that melts at about 225° C. as a single endothermic event by DSC analysis. It is appreciated herein that non-hygroscopic solids, such as Form II described herein, may be advantageous in the preparation of pharmaceutical compositions. Such advantages include improved handling and stability properties in manufacturing, improved lot to lot quality control.

For CC[C@H]1OC(=O)[C@@](C)(F)C(=O)[C@H](C)[C@@H](O[C@@H]2O[C@H](C)C[C@H](N(C)C)[C@H]2O)[C@](C)(OC)C[C@@H](C)C(=O)[C@H](C)[C@H]2N(CCCCn3cc(-c4cccc(N)c4)nn3)C(=O)O[C@]12C [Form I, solithromycin], the “change in color of the test material” value [1] was “no observed change in color”, the solubility at 6 h (physchem [2]) was 1410 µg/mL (≈ 1670 µM) and the AUCextrap ([3]; female) was 24%. For the same compound, the AUCextrap ([3]; male) was 24%, the AUC(0-t) (in vivo [4]; 5 mg/kg) was 3160 ng·h/mL and the Cmax (in vivo [4]; 5 mg/kg) was 1540 ng/mL. For the same compound, the Tmax (in vivo [4]; 5 mg/kg) was 0.5 h, the half-life (in vivo [4]; 5 mg/kg) was 1.32 h and the AUC(0-t) (in vivo [4]; 10 mg/kg) was 17200 ng·h/mL. The Cmax (in vivo [4]; 10 mg/kg) was 4090 ng/mL, the Tmax (in vivo [4]; 10 mg/kg) was 2 h and the half-life (in vivo [4]; 10 mg/kg) was 2.95 h. It also gave an AUC(0-t) (in vivo [4]; 20 mg/kg) of 26700 ng·h/mL, a Cmax (in vivo [4]; 20 mg/kg) of 5910 ng/mL and a Tmax (in vivo [4]; 20 mg/kg) of 2 h. The half-life (in vivo [4]; 20 mg/kg) was 1.91 h, the “AUC 0-24” value ([5]; 5 mg/kg) was 3.30 and the Cmax ([5]; 5 mg/kg) was 1430 ng/mL. The Tmax ([5]; 5 mg/kg) was 0.6 h, the t½ ([5]; 5 mg/kg) was 1.32 h and the “AUC 0-24” value ([5]; 10 mg/kg) was 17.7. The Cmax ([5]; 10 mg/kg) was 4680 ng/mL, the Tmax ([5]; 10 mg/kg) was 2.4 h and the t½ ([5]; 10 mg/kg) was 3.6 h. The “AUC 0-24” value ([5]; 20 mg/kg) was 26.2, the Cmax ([5]; 20 mg/kg) was 6640 ng/mL and the Tmax ([5]; 20 mg/kg) was 1.6 h. The t½ ([5]; 20 mg/kg) was 2.1 h, the solubility at 6 h (physchem [6]; pH 1.2, simulated gastric fluid) was 4810 µg/mL (≈ 5690 µM) and the solubility at 6 h (physchem [6]; pH 4, aqueous buffer) was 4660 µg/mL (≈ 5510 µM). For the same compound, the solubility at 6 h (physchem [6]; pH 7.4, aqueous buffer) was 2220 µg/mL (≈ 2630 µM), the solubility at 6 h (physchem [6]; pH 9.2, aqueous buffer) was 1750 µg/mL (≈ 2070 µM) and the AUC(0-inf) (in vivo [7]; female, 20 mg/kg) was 70000 ng·h/mL. For the same compound, the AUC(0-t) (in vivo [7]; female, 20 mg/kg) was 53000 ng·h/mL, the Cmax (in vivo [7]; female, 20 mg/kg) was 13600 ng/mL and the Tmax (in vivo [7]; female, 20 mg/kg) was 0.5 h. For the same compound, the concentration at 0 h (in vivo [7]; female, 20 mg/kg) was 0 ng/mL, the concentration at 0.25 h (in vivo [7]; female, 20 mg/kg) was 8200 ± 2400 ng/mL and the concentration at 0.5 h (in vivo [7]; female, 20 mg/kg) was 13600 ± 2000 ng/mL. It also gave a concentration at 1 h (in vivo [7]; female, 20 mg/kg) of 12000 ± 1700 ng/mL, a concentration at 2 h (in vivo [7]; female, 20 mg/kg) of 11300 ± 1400 ng/mL and a concentration at 4 h (in vivo [7]; female, 20 mg/kg) of 7700 ± 700 ng/mL. For the same compound, the concentration at 6 h (in vivo [7]; female, 20 mg/kg) was 4200 ± 400 ng/mL, the AUC(0-t) (in vivo [7]; female, 100 mg/kg) was 91000 ng·h/mL and the Cmax (in vivo [7]; female, 100 mg/kg) was 19500 ng/mL. It also gave a Tmax (in vivo [7]; female, 100 mg/kg) of 6 h, a concentration at 0 h (in vivo [7]; female, 100 mg/kg) of 0 ng/mL and a concentration at 0.25 h (in vivo [7]; female, 100 mg/kg) of 11900 ± 1700 ng/mL. It also gave a concentration at 0.5 h (in vivo [7]; female, 100 mg/kg) of 11600 ± 1600 ng/mL, a concentration at 1 h (in vivo [7]; female, 100 mg/kg) of 14700 ± 2300 ng/mL and a concentration at 2 h (in vivo [7]; female, 100 mg/kg) of 14100 ± 2900 ng/mL. For the same compound, the concentration at 4 h (in vivo [7]; female, 100 mg/kg) was 16000 ± 2300 ng/mL, the concentration at 6 h (in vivo [7]; female, 100 mg/kg) was 19500 ± 2300 ng/mL and the AUC(0-inf) (in vivo [7]; male, 20 mg/kg) was 46000 ng·h/mL. It also gave an AUC(0-t) (in vivo [7]; male, 20 mg/kg) of 35000 ng·h/mL, a Cmax (in vivo [7]; male, 20 mg/kg) of 9500 ng/mL and a Tmax (in vivo [7]; male, 20 mg/kg) of 1 h. It also gave a concentration at 0 h (in vivo [7]; male, 20 mg/kg) of 0 ng/mL, a concentration at 0.25 h (in vivo [7]; male, 20 mg/kg) of 5300 ± 1800 ng/mL and a concentration at 0.5 h (in vivo [7]; male, 20 mg/kg) of 7700 ± 1600 ng/mL. The concentration at 1 h (in vivo [7]; male, 20 mg/kg) was 9500 ± 900 ng/mL, the concentration at 2 h (in vivo [7]; male, 20 mg/kg) was 6400 ± 800 ng/mL and the concentration at 4 h (in vivo [7]; male, 20 mg/kg) was 5900 ± 600 ng/mL. It also gave a concentration at 6 h (in vivo [7]; male, 20 mg/kg) of 2600 ± 800 ng/mL, an AUC(0-t) (in vivo [7]; male, 100 mg/kg) of 83500 ng·h/mL and a Cmax (in vivo [7]; male, 100 mg/kg) of 17400 ng/mL. The Tmax (in vivo [7]; male, 100 mg/kg) was 4 h, the concentration at 0 h (in vivo [7]; male, 100 mg/kg) was 0 ng/mL and the concentration at 0.25 h (in vivo [7]; male, 100 mg/kg) was 11300 ± 2500 ng/mL. The concentration at 0.5 h (in vivo [7]; male, 100 mg/kg) was 10700 ± 3000 ng/mL, the concentration at 1 h (in vivo [7]; male, 100 mg/kg) was 13100 ± 3200 ng/mL and the concentration at 2 h (in vivo [7]; male, 100 mg/kg) was 13400 ± 3100 ng/mL. The concentration at 4 h (in vivo [7]; male, 100 mg/kg) was 17400 ± 2900 ng/mL, the concentration at 6 h (in vivo [7]; male, 100 mg/kg) was 12000 ± 2000 ng/mL and the hygroscopicity (Dynamic vapor sorption) was “partially hygroscopic”.

Source: US8759500B2, “Crystalline forms of a macrolide, and uses therefor” (Cempra Pharmaceuticals, Inc., priority 2010, dated 2014)
